This is an account of results in patent publication EP0334119A1, “Compounds for inhibiting the biosynthesis of lipoxygenase-derived metabolites of arachidonic acid” (BOEHRINGER INGELHEIM PHARMACEUTICALS INC., priority 1988, dated 1989).

Experiment [1] has as its system 5-lipoxygenase. Nature of the experiment: Inhibition of antigen-induced, late phase inflammatory cell infiltration in guinea pigs. The experiment is classed as in vivo. Conditions: 60 minutes before antigen challenge, lung lavage four hours after challenge. The text has this:
Inhibition of Antigen-Induced, Late Phase Inflammatory Cell Infiltration in Guinea Pigs
This model is used to measure the ability of a drug to inhibit 5-lipoxygenase in vivo. In addition to SRS-A, a chemotactic substance LTB₄ is also released by cells in the sensitized guinea pig lung upon stimulation by antigen. As a result there is a measurable influx of cells into the lung. Therefore, an inhibitor of 5-lipoxygenase could reduce the formation of LTB₄ and thereby reduce the cell influx into the lung.
Male outbred Hartley strain albino guinea pigs (250-300 grams) were sensitized to ovalbumin as in the procedure for inhibition of antigen-induced, SRS-A mediated bronchioconstriction in conscious guinea pigs.
Sensitized guinea pigs were fasted and pretreated with pyrilamine and indomethacin as in bronchioconstriction testing procedure. Test compounds, suspended in 1% acacia, were administered 60 minutes before antigen challenge. […] Whole lung lavage was performed with three 5 mL aliquots of normal saline buffered with sodium bicarbonate.
Total cell counts were performed on a Coulter Counter, and differential cell counts were performed. Compounds were evaluated for their ability to alter the antigen-induced total cell influx and, more specifically, neutrophil (PMN) influx.

In experiment [2] the target is T1, 5-lipoxygenase (Homo sapiens, UniProt P09917).
T1 construct: Human PMN's (5 x 10⁶ cells/0.5 mL) in pH 7.2 phosphate buffer; endogenous in cells; host or cells: human polymorphonuclear leukocytes (PMN)
T1 sequence (P09917 1-674): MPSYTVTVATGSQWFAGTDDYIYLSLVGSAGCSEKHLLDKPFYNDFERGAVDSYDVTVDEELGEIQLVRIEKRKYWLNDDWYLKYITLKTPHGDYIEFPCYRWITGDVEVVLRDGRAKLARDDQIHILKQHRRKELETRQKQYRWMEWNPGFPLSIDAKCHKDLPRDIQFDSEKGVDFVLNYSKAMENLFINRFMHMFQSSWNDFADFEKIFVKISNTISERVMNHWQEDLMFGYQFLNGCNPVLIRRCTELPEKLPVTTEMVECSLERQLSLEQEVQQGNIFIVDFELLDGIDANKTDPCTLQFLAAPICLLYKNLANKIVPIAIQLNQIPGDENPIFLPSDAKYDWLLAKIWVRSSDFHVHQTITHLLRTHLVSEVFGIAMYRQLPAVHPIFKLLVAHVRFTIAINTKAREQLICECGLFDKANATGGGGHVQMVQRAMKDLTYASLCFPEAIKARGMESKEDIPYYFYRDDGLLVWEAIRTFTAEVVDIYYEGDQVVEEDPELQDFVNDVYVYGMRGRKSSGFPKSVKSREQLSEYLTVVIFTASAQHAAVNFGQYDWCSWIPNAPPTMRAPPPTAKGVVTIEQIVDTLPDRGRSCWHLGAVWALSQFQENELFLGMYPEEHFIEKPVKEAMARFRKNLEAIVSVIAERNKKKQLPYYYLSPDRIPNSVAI
Nature of the experiment: Inhibition of 5-lipoxygenase (5-HETE biosynthesis) in human polymorphonuclear leukocytes. The settings on record: human PMN's, 5-HETE band vs control; test concentration 1 microM; read-out: Inhibition of 5-LO % at 1 M. The experiment is classed as cell-based. As to the method:
Inhibition of 5-Lipoxygenase in Human Polymorphonuclear Leukocytes (PMN's)
The inhibition of 5-lipoxygenase is measured by determining whether and to what extent test compounds inhibit the amount of 5-HETE biosynthesized by human PMN's. 5-HETE biosynthesis serves as a marker for arachidonic acid metabolism by 5-lipoxygenase.
Human PMN's (5 x 10⁶ cells/0.5 mL) in pH 7.2 phosphate buffer containing Ca²⁺ (0.6 mM) and Mg²⁺ (1.0 mM) were incubated with test compound for 15 minutes at 37°C with shaking. Calcium ionophore A23187 (0.25 mM, 0.01 mL) and [¹⁴C] arachidonic acid (0.10 microCi in 0.025 mL 0.01N NaOH) were added, and the mixture incubated another 2.5 minutes. The reaction was terminated by the addition of 0.025 mL of 1.0 N HCl. The mixture was then extracted with ethyl acetate-methylene chloride (2:3) supplemented with 12 microgram/mL cold arachidonic acid to reduce degradation of the metabolites. After concentrating the organic phase, the number of microlitres containing 5 x 10⁴ cpm was determined and that volume applied to a silica gel plate. The plate was developed in methylene-chloride-methanol-acetic acid-water (90:8:1:0.8), air dried, and counted on a Berthold linear TLC analyzer. The integrated area of the 5-HETE band was determined and compared with the control (no drug).
In cases where the IC₅₀ was determined, the result is shown in microM.

Experiment [3] concerns A23187-Induced LTB₄ Generation. The experiment in a line: Ex vivo inhibition of A23187-induced LTB4 generation in squirrel monkey blood. Details: species or system Squirrel Monkeys. Conditions: Primates, 1 h, 60 min after dosing, vehicle per footnotes 2-4. As for the experimental part:
Ex Vivo Inhibition of A23187-Induced LTB₄ Generation in Squirrel Monkeys.
Incubation of squirrel monkey whole blood with calcium ionophore A23187 stimulates the production of LTB₄. This LTB₄ production can be inhibited by a lipoxygenase inhibitor in vitro by incubating the blood with the inhibitor prior to A23187 challenge. By dosing squirrel monkeys with a lipoxygenase inhibitor prior to withdrawal of a blood sample, one can determine the ability of the lipoxygenase inhibitor to be absorbed into the bloodstream by measuring the inhibition of A23187 induced LTB₄ production ex vivo.
Squirrel monkeys (400-650g) were fasted for 18 hours, anesthetized and dosed either orally or intraperitoneally with test compound. After the desired time period, blood was withdrawn from the femoral vein. The blood (0.5 mL) was heparinized, preincubated at 37°C for 5 minutes and stimulated with A23187 in DMSO to give a final concentration of 30 microM. The reaction was terminated with EGTA (final concentration 10 microM), and the blood centrifuged. Levels of LTB₄ in the plasma were then determined by radioimmunoassay.
The results shown in Table 4 illustrate the ability of a prodrug of type 2a or 2b to be absorbed after ip or po dosing compared to the parent compound 1a.

For experiment [4], the system named is 5-lipoxygenase. The experiment in a line: Inhibition of antigen-induced, SRS-A mediated bronchioconstriction in conscious guinea pigs. It is filed as in vivo. The settings on record: i.p. in 5% Tween 80 suspension, 30mg/kg, 60 minutes before antigen challenge; % inhibition of the decrease in Cdyn. An excerpt: Inhibition of Antigen-Induced, SRS-A Mediated Bronchioconstriction in Conscious Guinea Pigs
This model is used to measure the ability of a drug to inhibit 5-lipoxygenase in vivo. SRS-A (slow reacting substance of anaphylaxis - also referred to as leukotrienes C₄, D₄ and E₄) is released by cells in the sensitized guinea pig upon stimulation by antigen, resulting in bronchioconstriction and change in pulmonary function. The leukotrienes are biosynthesized from arachidonic acid by the enzyme 5-lipoxygenase. Therefore, an inhibitor of 5-lipoxygenase could reduce the production of SRS-A and attenuate the bronchioconstriction.
Male outbred Hartley strain albino guinea pigs (250-300 grams) were sensitized by i.p. injection of ovalbumin (3mg/kg) followed by an i.p. injection of Bordetella pertussis (about 5x10⁹ killed organisms) and studied 14 days later.
Sensitized guinea pigs (fasted for 18 hours) were anesthesized and a catheter-tip pressure transducer was inserted into the pleural space of each animal. The animals are pretreated (i.p.) with pyrilamine (10mg/kg) and indomethacin (10mg/kg) to antagonize the effects of histamine and inhibit cyclooxygenase respectively. Cyclooxygenase products and histamine are released endogenously along with SRS-A, upon antigen challenge. Test compound is also administered i.p., 60 minutes before antigen challenge.
The guinea pigs were placed in a "head out" plethysmograph and allowed to recover from anesthesia. Airflow into the respiratory system, pleural pressure and airflow signals were measured, and tidal volume, dynamic pulmonary compliance (Cdyn) and breathing frequency were calculated according to a published technique (E.G. Damen et al., Toxicol. Appl. Pharmacol., 1982, 64, 465). After baseline values for pulmonary function were obtained, the animals were challenged by aerosolized ovalbumin. The overall changes in pulmonary function parameters were determined by calculating the mean changes from baseline during the period 5 to 15 minutes following antigen challenge.
Drug efficacy was determined by comparing the mean of the percent decrease in Cdyn from baseline in drug treated animals (N=4-6) to control animals (N=10-12).

The structures appear in SMILES notation. Like-named read-outs stand apart in the source and are kept apart here.

For the molecule `Cc1cc(C=Cc2cccs2)cc(C)c1O` [Compound 1a, 2,6-Dimethyl-4-[2-(2-thienyl)ethenyl]phenol], the “% Inh. PMN” value amounted to 95% in the experiment with 5-lipoxygenase [1] (30 mg/kg ip) and 14% with 5-lipoxygenase [1] (30 mg/kg po). In addition, the “% Inh. Total Cells” value with 5-lipoxygenase [1] (30 mg/kg ip) came out at 78%; in the experiment on 5-lipoxygenase [1] (30 mg/kg po), 51%. Besides, at 5-lipoxygenase [2], the inhibition at 1 µM came to 91%. Besides, the inhibition at 30 mg/kg in experiment [3] (30 mg/kg ip, read-out: Percent Inh. Monkey 2) amounted to 12%; in experiment [3] (30 mg/kg ip, read-out: Percent Inh. Monkey 3), 4%; in experiment [3] (30 mg/kg ip, read-out: Percent Inh. Monkey #1), 47%; in experiment [3] (30 mg/kg po, read-out: Percent Inh. Monkey 2) it was 0%; in experiment [3] (30 mg/kg po, read-out: Percent Inh. Monkey 3), 0%; in experiment [3] (30 mg/kg po, read-out: Percent Inh. Monkey #1), 18%. In the experiment on 5-lipoxygenase [4], the “% Inhibition of Bronchioconstriction” value stood at 75%.

`CC(C)c1cc(C=Cc2cccnc2)cc(C(C)C)c1O` [Compound 1ab]: the inhibition at 1 µM on 5-lipoxygenase [2] is 73%. Further, the “% Inhibition of Bronchioconstriction” value in the experiment with 5-lipoxygenase [4] was 34%.

On to `COc1cc(C=Cc2cccs2)cc(C)c1O` [Compound 1d, 2-Methoxy-6-methyl-4-[2-(2-thienyl)ethenyl]phenol], for which the inhibition at 1 µM at 5-lipoxygenase [2] is 65%. Besides, the “% Inhibition of Bronchioconstriction” value in the experiment on 5-lipoxygenase [4] was determined as 41%.

In the case of `CCc1cc(C=Cc2cccs2)cc(OC)c1O` [Compound 1e], the inhibition at 1 µM at 5-lipoxygenase [2] amounted to 85%. In addition, the “% Inhibition of Bronchioconstriction” value with 5-lipoxygenase [4] is reported as 51%.

Turning to `CCCc1cc(C=Cc2cccs2)cc(OC)c1O` [Compound 1f], in the experiment with 5-lipoxygenase [1] (30 mg/kg ip), the “% Inh. PMN” value stood at 54% and the “% Inh. Total Cells” value is 77%. For the same molecule, at 5-lipoxygenase [2], the inhibition at 1 µM is 76%. Also, the “% Inhibition of Bronchioconstriction” value in the experiment with 5-lipoxygenase [4] is recorded as 57%.

`Cc1cc(C=Cc2ccsc2)cc(C)c1O` [Compound 1o]: the inhibition at 1 µM at 5-lipoxygenase [2] turned out to be 84%. The “% Inhibition of Bronchioconstriction” value in the experiment with 5-lipoxygenase [4] is reported as 26%.

Take `Cc1cc(C=Cc2cccnc2)cc(C)c1O` [Compound 1x]: the inhibition at 1 µM at 5-lipoxygenase [2] turned out to be 62%. Moreover, the “% Inhibition of Bronchioconstriction” value in the experiment on 5-lipoxygenase [4] was determined as 39%.
